From patent US20220064204A1, “AMORPHOUS FORM OF 5-BROMOPYRIDIN-3-YL 3-DEOXY-3-[4-(3,4,5-TRIFLUOROPHENYL)-1H-1,2,3-TRIAZOL-1-YL]-1-THIO-ALPHA-D-GALACTOPYRANOSIDE” (GALECTO BIOTECH AB, priority 2018, published 2022)
Where two headings read alike, the source gives them in different places.

Tests used:
[1] = Phase 1 first-in-human study, single oral dose pharmacokinetics in healthy subjects (drug layered formulation capsules); type: in vivo; details: plasma; for half-life / AUC(0-t) / Tmax / AUC(0-inf): human; for half-life / AUC(0-t) / Tmax: po; for half-life / AUC(0-t) / AUC(0-inf): geometric mean; for AUC(0-t): read-out: AUC0-24; for Tmax / Tlog: median
Method: The first part of this study aims to obtain safety, tolerability and pharmacokinetic data when the compound of formula I is administered orally as a single dose in healthy subjects using the above drug layered formulation.
Experimental Data from Healthy Subject Cohort A1: 5 mg Compound of Formula I (API)
6 healthy subjects received 5 mg of compound of formula I capsules orally as a single dose in the fasted state, and 2 subjects receive placebo. The first 2 subjects (1 active and 1 placebo) were dosed 24 hours before the remaining subjects. Blood samples for pharmacokinetic analysis of plasma API concentrations were obtained by venipuncture before dosing, and then at 0.5, 1, 1.5, 2, 3, 4, 6, 8, 12, 16, 24, 36, and 48 hours post dose. […]
Experimental Data from Healthy Subject Cohort A3 Fasted: 50 mg Compound of Formula I (API)
(§1) 6 healthy subjects received 50 mg of compound of formula I capsules orally as a single dose in the fasted state, and 2 subjects receive placebo. The first 2 subjects (1 active and 1 placebo) were dosed 24 hours before the remaining subjects. Blood samples for pharmacokinetic analysis of plasma API concentrations were obtained by venipuncture before dosing, and then at 0.5, 1, 1.5, 2, 3, 4, 6, 8, 12, 16, 24, 36, and 48 hours post dose.
Experimental Data from Healthy Subject Cohort A3 Fed: 50 mg Compound of Formula I (API)
as §1, with “fed” for “fasted”, “dose. […]” for “dose.”
Experimental Data from Healthy Subject Cohort A5: 100 mg Compound of Formula I (API)
as §1, with “100” for “50”
Experimental Data from Healthy Subject Cohort A6: 200 mg Compound of Formula I (API)
as §1, with “200” for “50”
Experimental Data from Healthy Subject Cohort A7: 400 mg Compound of Formula I (API)
as §1, with “400” for “50”

[2] = Phase 1 study, multiple oral dose (twice a day for 10 days) pharmacokinetics in healthy subjects; type: in vivo, human; details: fasted state; for half-life: po
Method: The second part of this study aims to obtain safety, tolerability and pharmacokinetic data when the compound of formula I is administered orally dosed twice a day for 10 days in healthy subjects using the above drug layered formulation.
Experimental Data from Healthy Subject Cohort B1: 50 mg Compound of Formula I (API)
(§2) 8 healthy subjects received 50 mg of compound of formula I capsules and 3 subjects receive placebo orally twice a day for 10 days. Blood samples for pharmacokinetic analysis of plasma API concentrations were obtained by venipuncture before dosing on day 1, and then at 0.5, 1, 1.5, 2, 3, 4, 6, 8, 12, 16, 24, 36, and 48 hours post dose. Blood sampling was repeated on day 10.
Experimental Data from Healthy Subject Cohort B2: 100 mg Compound of Formula I
as §2, with “received 100” for “received 50”, “16, 24” for “16, 24, 36, and 48”, “repeated at” for “repeated on”

[3] = Dissolution of filled capsules / pellets in biorelevant media (FaSSIF); type: physicochemical; details: 18 hours
Method: As an alternative to poloxamer 188, the surfactant SLS was also evaluated to aid in the dispersion of the SDD.
The resulting drug layered pellets were analysed by UV-HPLC to determine the drug loading as well as by SEM, XRPD and Dissolution in biorelevant media.
The dissolution profile of the drug-layered pellets was compared to the dissolution profiles of the API alone as well an ASD formulation (physical mixture of SDD (API:HPMC603=1:2) and poloxamer 188) (see FIG. 4).

[4] = First in human study, safety and tolerability, single and multiple ascending doses; type: in vivo; details: oral
Method: The compound of formula I is tested in a Phase 1, randomized, double-blind, placebo-controlled, first-in-human study in which the safety, tolerability, and pharmacokinetics of orally administered compound of formula I is evaluated in healthy adult subjects and adult subjects with indication of suspected Nonalcoholic steatohepatitis (NASH) and liver fibrosis.
This study aims to obtain safety, tolerability and pharmacokinetic data when the compound of formula I is administered orally as single doses and as multiple doses to healthy subjects. In addition, an optional part has been included to obtain safety and tolerability data when the compound of formula I is administered orally as multiple doses to subjects with suspected Nonalcoholic steatohepatitis (NASH) and liver fibrosis.

[5] = Material characterization by TGA and dynamic vapor sorption (DVS); type: physicochemical; details: crystalline compound
[6] = Solubility of the crystalline compound (statement); type: physicochemical; details: highly crystalline compound
[7] = 5 mg, single oral dose 5 mg, fasted state
[8] = 20 mg, single oral dose 20 mg, fasted state
[9] = 50 mg, single oral dose 50 mg (1 × 50 mg), fasted state
[10] = 50 mg, single oral dose 50 mg (1 × 50 mg), fed state
[11] = 100 mg, single oral dose 100 mg, fasted state
[12] = 200 mg, single oral dose 200 mg, fasted state
[13] = 400 mg, single oral dose 400 mg, fasted state
[14] = single oral dose 100 mg, fasted state
[15] = single oral dose 200 mg, fasted state
[16] = single oral dose 400 mg, fasted state
[17] = 50 mg BID oral, Day 10, healthy subjects, geometric mean
[18] = 100 mg BID oral, Day 10, healthy subjects, geometric mean

half-life [1, 7]: 11.2 h | AUC(0-t) [1, 7]: 585 ng·h/mL | Tmax [1, 7]: 2 h | half-life [1, 8]: 12.4 h | AUC(0-t) [1, 8]: 2670 ng·h/mL | half-life [1, 9]: 12.6 h | AUC(0-t) [1, 9]: 3400 ng·h/mL | Tmax [1, 9]: 3 h | half-life [1, 10]: 12.8 h | AUC(0-t) [1, 10]: 3820 ng·h/mL | Tmax [1, 10]: 5 h | AUC(0-t) ([1]; 50 mg, single oral dose 50 mg (10 × 5 mg), fasted state): 5770 ng·h/mL | half-life [1, 11]: 12.1 h | AUC(0-t) [1, 11]: 4900 ng·h/mL | Tmax [1, 11]: 3.5 h | half-life [1, 12]: 15.1 h | AUC(0-t) [1, 12]: 9050 ng·h/mL | Tmax [1, 12]: 3.5 h | half-life [1, 13]: 14.5 h | AUC(0-t) [1, 13]: 15100 ng·h/mL | Tmax [1, 13]: 4 h | AUC(0-inf) [1, 14]: 6360 ng·h/mL | AUC(0-inf) [1, 15]: 13100 ng·h/mL | AUC(0-inf) [1, 16]: 21500 ng·h/mL | Tlog ([1]; single oral dose 5 mg, fasted state): 0.00 h | Tlog ([1]; single oral dose 20 mg, fasted state): 0.00 h | Tlog ([1]; single oral dose 50 mg (1 × 50 mg), fasted state): 0.00 h | Tlog ([1]; single oral dose 50 mg (1 × 50 mg), fed state): 0.75 h | Tlog ([1]; single oral dose 50 mg (10 × 5 mg), fasted state): 0.00 h | Tlog [1, 14]: 0.00 h | Tlog [1, 15]: 0.00 h | Tlog [1, 16]: 0.00 h | Cmin [2, 17]: 249 ng/mL | RAAUC [2, 17]: 2.31 | Cmin [2, 18]: 338 ng/mL | RAAUC [2, 18]: 2.11 | half-life ([2]; human, plasma, 50 mg, 50 mg BID oral, Day 1, geometric mean, unreliable due to short sampling duration 0-12 hours, exploratory): 7.34 h | half-life ([2]; human, plasma, 50 mg, 50 mg BID oral, Day 10, healthy subjects, geometric mean): 20.2 h | half-life ([2]; human, plasma, 100 mg, 100 mg BID oral, Day 1, geometric mean, unreliable due to short sampling duration 0-12 hours, exploratory): 7.04 h | half-life ([2]; human, plasma, 100 mg, 100 mg BID oral, Day 10, healthy subjects, geometric mean): 12.5 h | Cmax ([2]; human, plasma, 50 mg BID oral, Day 1, healthy subjects, geometric mean): 330 ng/mL | API released in the dissolution media ([3]; FaSSIF): less than 12% | API concentration in FaSSIF ([3]; dissolution): 0.011 mg/mL | hydrate formation ([5]; DVS): no indication of hydrate formation | hygroscopicity ([5]; dynamic vapor sorption (DVS)): not hygroscopic | solubility [6]: relatively low solubility
SMILES: OC[C@H]1O[C@H](Sc2cncc(Br)c2)[C@H](O)[C@@H](n2cc(-c3cc(F)c(F)c(F)c3)nn2)[C@H]1O [GB1211, 5-Bromopyridin-3-yl 3-deoxy-3-[4-(3,4,5-trifluorophenyl)-1H-1,2,3-triazol-1-yl]-1-thio-α-D-galactopyranoside]
safety and tolerability in man [4]: safe and well tolerated
